Source: patent US5053006A, “Method for the permanent occlusion of arteries” (priority 1990, dated 1991)
“And” between values parts separate entries of the source, which are not always exact repeats. Equal values may be shown once.

Columns and labels:
[1] = rat, in vivo; cited from earlier work
corneal cholesterol = assay: Corneal cholesterol content after photothrombosis (Example 6); format: in vivo, New Zealand white rabbit; settings: for Corneal Cholesterol Concentration, Difference Between Treated and Untreated Eyes / Corneal Cholesterol Concentration, Difference Between Treated and Untreated Eyes, %: individual rabbit
From the text: Nine New Zealand white strain rabbits weighting 1 to 2 kg were rendered hypercholesterolemic by foods that contained high levels of cholesterol, as described in Stock et. al., Arch. Ophthalmol., 103:726-730, 1985; and Mendelsohn et al., Ophthalmic Surg., 17:502-508, 1986. Eight days after commencement of the high-cholesterol diet, corneal sutures were implanted in both eyes according to the surgical procedure described in Mendelsohn et al., Ophthalmic Surg., 17:502-508, 1986.
On day 22, slit-lamp photographs and fluorescein angiograms were obtained of all corneas (Mendelsohn et al., Arch. Ophthalmol., 105:983-988, 1987, the disclosure of which is hereby incorporated by reference and relied upon). On the next day, one eye of each rabbit underwent laser surgery, with the other eye serving as a comparative control. Rose bengal dye was dissolved at a concentration of 30 mg/ml in 0.9% saline solution. For the initial injection, the dye solution was administered at a total body concentration of 45 mg/kg. For the two animals in which the procedure took longer than 25 minutes, a booster injection of 15 mg/kg was administered. Irradiations of corneal vessels were carried out with an argon ion laser (Model 95, Cooper Laser-Sonica, Sunnyvale, Calif.) operated in the TEM00 mode at 514.5 nm. The beam was directed toward an aluminized mechanical shutter (AW Vincent Associates, Rochester, NY), which reflected it at a right angle through a 514.5-nm custom interference filter with a transmittance of 92% (Omega Optical, Brattleboro, VT) and then through a fused silica lens with a focal length of 7.5 cm for focusing into a 2.5-m fiberoptic cable 400 μm in diameter. In the optical fiber, the gaussian input beam profile was converted into an output beam. The output was collimated by a plano convex lens 3.5 cm in focal length and focused with a plano convex lens with a focal length of 1.0 cm. The lenses were mounted in a beam telescope attached to an X-Y positioning device (Daedal Inc., Harrison City, Pa.). The beam diameter was measured with a calibrated reticle in the ocular of a ×20 operating microscope. By observing, through a 514.5-nm rejection filter, the fluorescence of a white card impregnated with rhodamine B, the minimum diameter of the organe fluorescent spot at the focal point was determined to be 63 μm. Combining the transmission efficiencies of the three uncoated lenses (92% per lens, 76% total transmission) with those of the optical fiber and interference filter yielded a system transmission efficiency of 61.5%. This reduced the incident power level of the laser from 215 mW to an effective power level of 132 mW; this corresponded to an incident intensity at the focal point of 4.23 kW/cm^2 . During shutter closure, irradiations were carried out in 0.2-s intervals. When the shutter was opened, the low-power beam, which was reflected off an optical flat and through the optical system, was used for aligning the next vessel selected for irradiation.
One eye of each rabbit was subjected to laser applications that were directed toward the vascular branching points of the limbal and corneal feeder vessels adjacent to the sites of lipid deposits. […] Initially, the irradiated segment appeared yellow-orange because the fluorescence of rose bengal had been absorbed into erythrocyte plasma membranes and plasma proteins. As platelets accumulated, the fluorescence became yellowish and less intense. […]

fibrinogen = assay: Immunofluorescence study of thrombus composition, fibrinogen; parameters: species or system rat
Method: Following incubation with primary antibody for one hour, FITC-conjugated goat anti-mouse IgG and goat anti-mouse IgG antibodies (Sigma Chemical Co., St. Louis, Mo.) were used as secondary antibodies for anti-fibrinogen and anti-Factor VIII, respectively. The sections were observed by epi-illumination with a Nikon Microphot-FX microscope.

corneal blood vessels = format: in vivo, New Zealand albino rabbit
From the text: Both corneal and limbal epithelia, along with the conjunctival epithelium 2-3 mm beyond the limbus, were removed from New Zealand albino rabbit eyes by n-heptanol debridement and surgical scraping (Huang et al., Ophthalmology, 95:228-235, 1988, the disclosure of which is hereby incorporated by reference and relied upon). The denuded corneas were healed by the remaining conjunctival epithelium within 9 to 12 days, of which 65% became extensively vascularized two to three weeks after healing. Sixteen corneas with persistent neovascularization of 20 months duration were subjected to photothrombotic treatment.
Occlusion of corneal blood vessels was achieved by intravenous injection of the rose bengal solution at a dosage of 40 mg/kg body weight followed by irradiation of the blood vessels with an argon green laser beam (514.5 nm in wavelength) set at a power of 130 mW, beam spot size of 63 μm in diameter, and duration of 0.2 second. During the irradiation, the corneal surface was rinsed with a balanced salt solution maintained at 37° C. to ensure the efficacy of photothrombosis. The laser beam was applied to the limbus at the arborization point of each feeder vessel. In 12 corneas, the blood vessels on the upper half of the cornea were photothrombosed and those on the lower half were left untreated and used as an internal control. In the remaining four corneas, the blood vessels on the entire cornea were treated. Each blood vessel was occluded within 10 consecutive shots of irradiation. For all corneas, the treatment was completed within 30 minutes after initial injection of rose bengal solution. After laser irradiation, topical antibiotics and steroids were applied for two days. This treatment was similar to that described in Watson et al., Lasers Surg. Med., 7:127, 1987.
External ocular examinations were performed to identify changes on the ocular surface before and after photothrombosis. Surface smoothness was examined by routine slitlamp biomicroscopy. External photographs were taken to document corneal clarity and regression of the vessels.
Occlusion of the corneal blood vessels and the duration of occlusion were further studied by routine corneal fluorescein angiography using an intravenous injection of 1 ml of 10 mg/ml of sodium fluorescein. Photographs and angiograms were taken with a Zeiss surgical microscope. Baseline angiography was performed two to three days before photothrombosis to avoid possible photosensitizing effects from the fluorescein used for angiography. Follow-up angiograms were taken on the scheduled dates to document the occlusive effect and its duration. Late phase fluorescein angiograms (5 minutes after injection) were chosen for comparisons. After occlusion was confirmed by angiography, the rabbits were sacrificed on the prescheduled date and corneal buttons were obtained and subjected to epithelial differentiation studies. The total follow-up duration was 18 weeks.

SMILES: O=C([O-])c1c(Cl)c(Cl)c(Cl)c(Cl)c1-c1c2cc(I)c(=O)c(I)c-2oc2c(I)c([O-])c(I)cc12.[Na+].[Na+] [rose bengal]
- half-life in blood [1]: two
- Corneal Cholesterol Concentration, Difference Between Treated and Untreated Eyes (corneal cholesterol; 45 mg/kg): 0.144 g of Cholesterol/100 g of Corn and 0.007 g of Cholesterol/100 g of Corn and 0.076 g of Cholesterol/100 g of Corn and 0.149 g of Cholesterol/100 g of Corn and 0.105 g of Cholesterol/100 g of Corn and 0.129 g of Cholesterol/100 g of Corn and 0.058 g of Cholesterol/100 g of Corn
- Corneal Cholesterol Concentration, Difference Between Treated and Untreated Eyes, % (corneal cholesterol; 45 mg/kg): -36.5% and -2.5% and -24.3% and -41.7% and -29.1% and -42.0% and -21.9%
- Corneal Cholesterol Concentration, Difference Between Treated and Untreated Eyes (corneal cholesterol; 60 mg/kg (45 plus booster 15)): 0.219 g of Cholesterol/100 g of Corn and 0.206 g of Cholesterol/100 g of Corn
- Corneal Cholesterol Concentration, Difference Between Treated and Untreated Eyes, % (corneal cholesterol; 60 mg/kg (45 plus booster 15)): -58.6% and -51.8%
- average reduction of corneal cholesterol content (corneal cholesterol; laser-treated vs control eyes): 36%
- fibrinogen in photoinduced MCA thrombi (fibrinogen): abundance
- consecutive shots to occlude each blood vessel (corneal blood vessels; 40 mg/kg i.v., 130 mW, 0.2 second): ≤ 10 shots
- dye leakage in angiograms, treated areas (corneal blood vessels; follow-up angiograms): free of dye leakage
- regression of occluded corneal blood vessels (corneal blood vessels; four days after treatment): gradually regressed
- epithelial breakdown (corneal blood vessels; rabbit, in vivo): No epithelial breakdown was observed
- persistence of hemorrhagic spots (corneal blood vessels; rabbit, in vivo): two to three
- retention of rose bengal in corneas (corneal blood vessels; rabbit, in vivo): all 16 corneas were clear of retained rose bengal
- occlusion of treated vessels (corneal blood vessels; two corneas, 18 weeks): all treated vessels remained occluded without recanalization, and no new vessel growth elsewhere was observed
- pH of isotonic saline solution (15 mg/ml): 6.80
- highest concentration which could be achieved practically (normal saline): 100 mg/mL
